In US9421237B2, “Tripeptide boronic acid or boronic ester, preparative method and use thereof” (PEKING UNIVERSITY, priority 2009, dated 2016):

What was measured:
[1] = target: T1, 20S proteasome extracted from rat liver, peptidyl-glutamyl-peptide-hydrolyzing (PGPH) enzyme activity (Rattus norvegicus, UniProt P28073+Q9JHW0); experiment: Proteasome inhibition, PGPH activity, fluorescent peptide Z-leu-leu-Glu-βNA; assay type: biochemical; conditions: rat liver 20S proteasome, 37° C., 1 h
T1 construct: 20S proteasome extracted from rat liver; from tissue; host or cells: rat liver
Procedure: (§1) The activities of the proteasome were assayed using fluorescent peptides: Suc-leu-leu-Val-Tyr-AMC (Suc represents succinyl, and AMC represents 7-amino-4-methylcoumarin, purchased from SIGMA) for determining chymotryptic-like (CT-L) activity; Z-Ala-Arg-Arg-AMC (Z represents benzyloxycarbonyl, purchased from Calbiochem) for determining trypsin-like (TL) activity; and Z-leu-leu-Glu-βNA (βNA represents β-naphtylamide, purchased from SIGMA) for determining peptidyl-glutamyl-peptide-hydrolyzing (PGPH) enzyme activity.
(§2) Method for the aforesaid activity assays is as follows: 1 μg of 20S proteasome extracted from rat liver was incubated with a 100 μL solution containing various concentrations of compounds, 50 μM fluorescent peptides and 20 mM Tris-HCl at 37° C. for 1 h, respectively. The fluorescence released from AMC and RNA reagents was measured by a spectrofluorimeter Fluostar OPTIMA and BMG Germany at excitation/emission wavelengths of 380/440 nm and 335/410 nm, respectively. 0.1% DMSO was used as a solvent control. Compared with the fluorescence of solvent control, an inhibition rate was calculated. Said assays used anticancer drug bortezomib (leukemia drug), namely PS341 as compound for positive control.

[2] = target: T2, 20S proteasome extracted from rat liver, chymotryptic-like (CT-L) activity (Rattus norvegicus, UniProt P18421+P28075); experiment: Proteasome inhibition, chymotryptic-like (CT-L) activity, fluorescent peptide Suc-leu-leu-Val-Tyr-AMC; assay type: biochemical; conditions: rat liver 20S proteasome, 37° C., 1 h
T2 construct: 20S proteasome extracted from rat liver; from tissue; host or cells: rat liver
Procedure: as §1
as §2, with “calculated.” for “calculated. Said assays used anticancer drug bortezomib (leukemia drug), namely PS341 as compound for positive control.”

[3] = target: T3, 20S proteasome extracted from rat liver, trypsin-like (TL) activity (Rattus norvegicus, UniProt P40112+Q9JHW0); experiment: Proteasome inhibition, trypsin-like (TL) activity, fluorescent peptide Z-Ala-Arg-Arg-AMC; assay type: biochemical; conditions: rat liver 20S proteasome, 37° C., 1 h; read-out: T-L (IC50)
T3 construct: 20S proteasome extracted from rat liver; from tissue; host or cells: rat liver
Procedure: as §1, §2

[4] = test system: Bel-7402 human hepatocarcinoma cell; experiment: Preliminary anti-tumor screening in vitro, SRB method; assay type: cell-based; set-up: key to Test results: +++: inhibition rates at three doses are greater than 50%; ++: inhibition rates at two doses are greater than 50%; +: inhibition rate at one dose is greater than 50%; conditions: Bel-7402, SRB; for Test results: number of doses with inhibition > 50%; for inhibition at 0.05 µM / inhibition at 0.5 µM / inhibition at 5 µM: Homo sapiens, read-out: Inhibition rate %
Procedure: (§3) The test methods used in this test example is the routine method for anti-tumor activities test in pharmaceutical area, for example, referring to the following reference: (J. Immunol Method, 1983, 65, 55).
(§4) Test models: A: MTT method (HL-60 human leukemia); B: SRB method (BGC-823 human gastric cancer); C: SRB method (Bel-7402 human hepatocarcinoma); D: SRB method (KB human nasopharyngeal carcinoma).
(§5) The aforesaid tests were carried out with the compounds of Examples 1-26 in the present invention, test results are shown in Tables 2-5.

[5] = test system: BGC-823 human gastric cancer cell; experiment: as above; assay type: cell-based; set-up: key to Test results: +++: inhibition rates at three doses are greater than 50%; ++: inhibition rates at two doses are greater than 50%; +: inhibition rate at one dose is greater than 50%; conditions: BGC-823, SRB; for Test results: number of doses with inhibition > 50%; for inhibition at 0.05 µM / inhibition at 0.5 µM / inhibition at 5 µM: Homo sapiens, read-out: Inhibition rate %
Procedure: as §3, §4, §5

[6] = test system: KB human nasopharyngeal carcinoma cell; experiment: as above; assay type: cell-based; set-up: key to Test results: +++: inhibition rates at three doses are greater than 50%; ++: inhibition rates at two doses are greater than 50%; +: inhibition rate at one dose is greater than 50%; conditions: for inhibition at 0.05 µM / inhibition at 0.5 µM / inhibition at 5 µM: Homo sapiens, read-out: Inhibition rate %; for Test results: number of doses with inhibition > 50%
Procedure: as §3, §4, §5

[7] = test system: HL-60 human leukemia cell; experiment: Preliminary anti-tumor screening in vitro, MTT method; assay type: cell-based; set-up: key to Test results: +++: inhibition rates at three doses are greater than 50%; ++: inhibition rates at two doses are greater than 50%; +: inhibition rate at one dose is greater than 50%; conditions: HL-60, MTT; for Test results: number of doses with inhibition > 50%; for inhibition at 0.05 µM / inhibition at 0.5 µM / inhibition at 5 µM: Homo sapiens, read-out: Inhibition rate %
Procedure: as §3, §4, §5

[8] = test system: murine H22 cells; experiment: In vivo anti-tumor activity, H22 tumor in ICR mice, oral administration; conditions: 1 mg/kg orally once per day for 10 days
Procedure: Animal: ICR mice, half male and half female (18-22 g), provided by Laboratory Animal Science Department of Peking Medical University.
Tumor cell strain: murine H22 cells were provided by cell bank of pharmacological group of the State Key Laboratory of Natural and Biomimetic Drugs.
Method: Murine tumor cells were taken to be treated, and diluted to 5×10^6 cells/ml after treatment. The diluted tumor cells solution was inoculated to the left forelimb oxter of the mice with 0.2 ml/mouse under aseptic condition. 24 h after inoculation, the mice were divided into groups and orally administered once per day to the mice in each group for 10 days. At the 12th day, the tumors were peeled off and weighed, and the average weight of the tumor, standard deviation (SD) and p-value of each group were calculated.

CC(C)C[C@H](NC(=O)[C@H](Cc1c[nH]c2ccccc12)NC(=O)[C@H](Cc1ccccc1)NC(=O)c1cnccn1)B(O)O [Compound 6j, N-pyrazineformyl-L-phenylalanyl-L-tryptophyl-L-leucine Boronic Acid]
IC50 [1]: > 20 nM | IC50 [2]: > 20 nM | IC50 [3]: > 20 nM

CC(C)C[C@H](NC(=O)[C@H](Cc1ccccc1)NC(=O)[C@H](Cc1ccccc1)NC(=O)c1cnccn1)B1OC2CC3C[C@@H](C3(C)C)[C@]2(C)O1 (stereo partly drawn) [Compound 5a, Pinanediol N-pyrazineformyl-L-phenylalanyl-L-phenylalanyl-L-leucine Borate]
IC50 [1]: 8.33 ± 2.49 nM | melting point: 78 to 80 °C | IC50 [2]: 0.402 ± 0.024 nM | IC50 [3]: > 20 nM

CC(C)C[C@H](NC(=O)[C@H](CC1=CNC2C=CC=CC12)NC(=O)[C@H](Cc1ccccc1)NC(=O)c1cnccn1)B1OC2CC3C[C@@H](C3(C)C)[C@]2(C)O1 (some centres unmarked) [Compound 5j]
IC50 [1]: > 20 nM | IC50 [2]: > 20 nM | IC50 [3]: > 20 nM

CC(C)C[C@H](NC(=O)[C@H](CC(C)C)NC(=O)[C@H](Cc1ccc2ccccc2c1)NC(=O)c1cnccn1)B1OC2CC3C[C@@H](C3(C)C)[C@]2(C)O1 (stereo partly drawn) [Compound 5m, Pinanediol N-pyrazineformyl-L-naphthylalanyl-L-leucyl-L-leucine Borate]
melting point: 99 to 100 °C | Test results [4]: ++ | inhibition at 0.05 µM [4]: 6.49% | inhibition at 0.5 µM [4]: 52.6% | inhibition at 5 µM [4]: 95.7% | Test results [5]: ++ | inhibition at 0.05 µM [5]: 46% | inhibition at 0.5 µM [5]: 84.5% | inhibition at 5 µM [5]: 97.2% | inhibition at 0.05 µM [6]: 8.59% | inhibition at 0.5 µM [6]: 85.6% | inhibition at 5 µM [6]: 96.2% | Test results [6]: ++ | Test results [7]: ++ | inhibition at 0.05 µM [7]: 11.2% | inhibition at 0.5 µM [7]: 82.7% | inhibition at 5 µM [7]: 87.9% | IC50 [2]: 0.345 ± 0.106 nM | IC50 [3]: > 20 nM

CC(C)C[C@H](NC(=O)[C@H](Cc1ccc2ccccc2c1)NC(=O)[C@H](Cc1ccccc1)NC(=O)c1cnccn1)B1OC2CC3C[C@@H](C3(C)C)[C@]2(C)O1 (stereo partly drawn) [Compound 5g, Pinanediol N-pyrazineformyl-L-phenylalanyl-L-naphthylalanyl-L-leucine Borate]
melting point: 97 to 98 °C | Test results [4]: ++ | inhibition at 0.05 µM [4]: 46.7% | inhibition at 0.5 µM [4]: 77.7% | inhibition at 5 µM [4]: 94.7% | Test results [5]: +++ | inhibition at 0.05 µM [5]: 77.6% | inhibition at 0.5 µM [5]: 95.4% | inhibition at 5 µM [5]: 95.9% | inhibition at 0.05 µM [6]: 62.8% | inhibition at 0.5 µM [6]: 95.5% | inhibition at 5 µM [6]: 96.5% | Test results [6]: +++ | Test results [7]: ++ | inhibition at 0.05 µM [7]: -5.06% | inhibition at 0.5 µM [7]: 87.5% | inhibition at 5 µM [7]: 88.3% | IC50 [2]: 0.443 ± 0.081 nM | IC50 [3]: > 20 nM

CC(C)C[C@H](NC(=O)[C@H](Cc1ccccc1)NC(=O)c1cnccn1)B(O)O [PS341, Bortezomib, reference compound]
Body weight (g) (X ± SD) ([8]; ICR mice with H22): 0.65 ± 2.07 g | Inhibition rate (%) ([8]; tumors weighed at 12th day): 62.05% | Tumor weight (g) (X ± SD) ([8]; tumors weighed at 12th day): 0.47 ± 0.20 g | IC50 [3]: > 20 nM

CC(C)C[C@H](NC(=O)[C@H](CC(C)C)NC(=O)[C@H](Cc1ccccc1)NC(=O)c1cnccn1)B(O)O [Compound 6k, N-pyrazineformyl-L-phenylalanyl-L-leucyl-L-leucine Boronic Acid]
IC50 [1]: 5.66 ± 0.839 nM | melting point: 116 to 118 °C | IC50 [2]: 0.173 ± 0.033 nM | IC50 [3]: > 20 nM
